{"source": "patent US20110020252A1", "about": "“METHOD OF LONG LASTING HUMAN SKIN TANNING” (priority 2010, published 2011)", "key": {"skin": {"tested_on": "skin", "conditions": "cited from earlier work"}, "hepatic enzyme": {"tested_on": "hepatic enzyme", "conditions": "compared with Rifampin; cited from earlier work"}, "[1]": {"assay": "Safety of Rifampin at 600 to 1200 mg daily", "assay_type": "in vivo, human", "conditions": "600 mg to 1200 mg as a daily dose", "text": "Symptoms of overdose may include swelling of face or around eyes, itching over the entire body, orange or red discoloration of skin or eyes, nausea, vomiting, drowsiness, and loss of consciousness. If overdose is suspected, contact your local poison control center or emergency room immediately. One needs to take the prescribed amount for tanning to avoid any overdosing.\nIt has one of the best safety records taken for such a long time. It can be safely used for tanning in the doses of 600 to 1200 mg (dose depending on the weight) day orally for 3-5 days or till one obtains the desired tan without any untoward effects."}, "[2]": {"conditions": "human, in vivo"}, "[3]": {"conditions": "600 mg to 1200, up to 6 months or more, tuberculosis treatment; cited from earlier work"}, "[4]": {"conditions": "cited from earlier work"}, "human skin": {"tested_on": "human skin", "assay": "Skin tanning with oral Rifampin plus sun/UVR exposure (patient, volunteers, tanning booth users)"}}, "data": [{"smiles": "O=C[C@H](O)[C@H](O)[C@H](O)CO", "note": "[D-ribose]", "values": [{"measurement": "effect on wound surface", "setting": "skin; applied directly to a wound", "result": "caused the surface to become brown"}, {"measurement": "effect on tanning", "setting": "skin; in water applied to the skin", "result": "showed no such effect on tanning"}]}, {"smiles": "CO[C@H]1/C=C/O[C@@]2(C)Oc3c(C)c(O)c4c(c3C2=O)C2=NC3(CCN(CC(C)C)CC3)NC2=C(NC(=O)/C(C)=C\\C=C\\[C@H](C)[C@H](O)[C@@H](C)[C@@H](O)[C@@H](C)[C@H](OC(C)=O)[C@@H]1C)C4=O", "note": "[Rifabutin]", "values": [{"measurement": "hepatic enzyme induction", "setting": "hepatic enzyme", "result": "less hepatic enzyme induction"}]}, {"smiles": "CO[C@H]1/C=C/O[C@@]2(C)Oc3c(C)c(O)c4c(O)c(c(/C=N/N5CCN(C)CC5)c(O)c4c3C2=O)NC(=O)/C(C)=C\\C=C\\[C@H](C)[C@H](O)[C@@H](C)[C@@H](O)[C@@H](C)[C@H](OC(C)=O)[C@@H]1C", "note": "[Rifampin]", "values": [{"measurement": "overdose effects", "setting": "[1]", "result": "haven't noticed any overdose effects"}, {"measurement": "time until urine and facial orange coloration disappears", "setting": "[2]", "result": "≤ 24", "unit": "h"}, {"measurement": "adverse effects", "setting": "[3]", "result": "without any serious adverse effect"}, {"measurement": "plasma levels, mean", "setting": "[4]; 600 mg dose on an empty stomach", "result": 7000, "unit": "ng/mL"}, {"measurement": "effect of antacids on absorption", "setting": "[4]; antacids", "result": "do not affect absorption"}, {"measurement": "administered drug excreted unchanged through the urine", "setting": "[4]; in vivo", "result": "about 7%"}, {"measurement": "excretion into breast milk", "setting": "[4]; in vivo", "result": "excreted into breast milk"}, {"measurement": "fraction metabolized by the liver microsomal enzymes", "setting": "[4]; in vivo", "result": "Approximately 85%"}, {"measurement": "time after which almost the entire drug is deacetylated", "setting": "[4]; in vivo", "result": "about 6 hours"}, {"measurement": "urinary elimination, share of the dose that is excreted", "setting": "[4]; in vivo", "result": "about 30%"}, {"measurement": "time to peak plasma concentrations", "setting": "[4]; orally administered", "result": "1 to 2", "unit": "h"}, {"measurement": "peak blood concentration when taken with a meal", "setting": "[4]; taken with a meal", "result": 36, "unit": "%"}, {"measurement": "dose eliminated within 24 hours", "setting": "[4]; within 24 hours", "result": "Approximately 50%"}, {"measurement": "tanning effect by skin type", "setting": "human skin; […]", "result": "more pronounced in brown skinned"}, {"measurement": "dandruff production", "setting": "human skin; experimental test individuals using this method of tanning", "result": "less dandruff production"}, {"measurement": "skin staining of tuberculosis patients", "setting": "human skin; use for many months with exposure to Sun light", "result": "became much darkly stained"}, {"measurement": "tanning result", "setting": "human skin; volunteers and tanning booth users, minimum UVR exposure", "result": "good natural looking long lasting tanning"}]}]}
